{"source": "patent US9187413B2", "about": "“Peripherally restricted FAAH inhibitors” (The Regents of the University of California, priority 2010, dated 2015)", "key": {"FAAH [1]": {"target": "T1, FAAH (Mus musculus (Mouse), UniProt O08914)", "T1 sequence (O08914 whole entry)": "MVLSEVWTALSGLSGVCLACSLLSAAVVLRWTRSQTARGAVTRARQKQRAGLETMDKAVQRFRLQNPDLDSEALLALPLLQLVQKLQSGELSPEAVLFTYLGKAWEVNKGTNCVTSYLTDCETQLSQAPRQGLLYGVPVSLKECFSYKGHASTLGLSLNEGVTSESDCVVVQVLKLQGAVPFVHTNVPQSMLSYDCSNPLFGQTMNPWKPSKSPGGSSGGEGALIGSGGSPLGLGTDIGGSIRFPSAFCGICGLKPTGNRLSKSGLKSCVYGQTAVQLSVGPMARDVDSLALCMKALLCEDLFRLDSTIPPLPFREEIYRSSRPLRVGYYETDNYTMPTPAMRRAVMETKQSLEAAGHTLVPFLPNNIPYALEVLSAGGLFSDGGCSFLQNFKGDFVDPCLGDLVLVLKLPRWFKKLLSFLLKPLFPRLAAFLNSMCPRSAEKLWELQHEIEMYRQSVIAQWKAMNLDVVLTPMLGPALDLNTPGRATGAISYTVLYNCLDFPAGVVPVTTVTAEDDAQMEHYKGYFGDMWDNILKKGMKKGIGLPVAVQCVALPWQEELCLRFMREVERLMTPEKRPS", "assay": "FAAH inhibition ex vivo after systemic administration in mice", "conditions": "mouse, ip", "method": "Drug preparation for in vivo experiments Drugs were dissolved in polyethylene glycol 400/Tween-80/saline (1/1/18; by volume) and administered by i.p. (5-10 mL-kg^−1) or s.c. injection (10 mL-kg^−1)."}, "[2]": {"assay": "Drug transport assay through polarized TC7 monolayers", "assay_type": "in vitro ADME", "conditions": "human", "method": "(§1) Drug transport assays. Assays were performed at Cerep Inc. (Redmond, Wash.), following protocols outlined in the company's web-site (http://www.cerep.fr).\n(§2) Drug transport assays Transport assays were conducted at Cerep Inc. (Redmond, Wash.). Cellular permeability was determined in the apical (A) to basal (B) and the B to A direction in the presence of 10 μM compound in Hanks' buffered salt solution containing 1% dimethylsulfoxide (DMSO). Efflux ratios were calculated as the ratio of B-A to A-B permeabilities."}, "Pgp": {"system": "Pgp", "assay": "Drug transport assay through polarized TC7 monolayers", "assay_type": "in vitro ADME", "conditions": "human, Caco-2, with verapamil (100 μM); TC7 monolayers, Pgp inhibitor verapamil (100 μM); read-out: B-A permeability with verapamil", "method": "as §1, §2"}, "[3]": {"system": "acetic acid-induced writhing", "assay": "Acetic acid-induced writhing", "assay_type": "in vivo, mice", "method": "(§3) Behavioral tests. We measured nocifensive responses elicited by i.p. injection of acetic acid in male Swiss and C57B1/6 (wild-type or FAAH-deficient) mice^40, intraplantar injection of carrageenan in male Swiss mice^20, intraplantar injection of formalin in male Sprague-Dawley rats^41, and sciatic nerve ligation in male Swiss mice^39.\nBehavioral tests Acetic acid-induced writhing was measured in Swiss mice or C57B1/6 mice (wild-type and FAAH-deficient), as described^40 with minor modifications. Briefly, the mice were acclimated to the experimental room for 2 h. Each animal was injected with acetic acid (150 μL, 0.6% in saline) and placed into a glass cylinder. Abdominal stretches (extension of body and hind limbs) were counted for 20 min, starting 5 min after acetic acid injection. […] Behavior was scored by an observer blinded to the treatment conditions. Formalin-induced nociception was assessed in Sprague-Dawley rats, as described^41. The rats were singly housed and kept in a shared holding room under a 12:12 h light:dark cycle. […] Immediately after formalin injection, the rats were returned to the observation container and nocifensive behavior was recorded for 60 min with a video camera. Recordings were analyzed by observers blinded to treatment conditions. Nocifensive behavior was measured continuously for 60 min^41. […] Each 5-min bin was analyzed for time spent (1) lifting and (2) licking or biting the injected paw. Nocifensive behavior was analyzed using the composite pain score weighted scores technique (CPS-WST1,2) calculated for the entire time of observation (0-60 min) and, separately, for the first (0-10 min) and second phase (10-60 min) of the behavioral response^46. The area under the curve (AUC) corresponding to CPS-WST1,2 was calculated using the trapezoidal rule. […] Paw volumes were measured using a plethysmometer (Ugo Basile, Milan, Italy). […] Mechanical hyperalgesia was assessed by measuring the latency(s) to withdraw the paw from a constant mechanical pressure exerted onto its dorsal surface. […]"}, "FAAH [4]": {"target": "T1, FAAH", "assay": "Tissue levels of anandamide, PEA and 2-AG by LC/MS", "assay_type": "in vivo", "conditions": "mice, 1 mg-kg^-1, i.p.", "protocol": "Tissue analyses. We performed tissue extractions and liquid chromatography/mass spectrometry analyses of endocannabinoids as described^38.\nTissue extractions Mice were sacrificed with isoflurane and tissues were collected and immediately frozen in liquid nitrogen. Frozen tissues were weighed and homogenized in methanol (1 mL) containing [^2H4]-anandamide, [^2H4]-PEA, [^2H8]-2-AG, and N-cyclohexyl biphenyl-3-ylacetamide as internal standards. Analytes were extracted with chloroform (2 vol) and washed with water (1 vol). Organic phases were collected and dried under nitrogen. […] For other analyses the organic extract was fractionated by open-bed silica gel column chromatography, as described^43. Briefly, the extract was dissolved in chloroform and loaded onto small glass columns packed with Silica Gel G (60˜A 230-400 Mesh ASTM; Whatman, Clifton, N.J.). Anandamide, PEA and 2-AG were eluted with chloroform/methanol (9:1, vol/vol).\nMobile phase A consisted of methanol containing 0.25% acetic acid, 5 mM ammonium acetate; mobile phase B consisted of water containing 0.25% acetic acid, 5 mM ammonium acetate. […] Column temperature was kept at 40° C. […] Limit of quantification was 0.4 pmol."}, "[5]": {"system": "formalin-induced nociception", "assay": "Formalin-induced pain behavior", "assay_type": "in vivo", "conditions": "rats, 1 mg-kg^-1, i.p.", "method": "as §3\nBehavioral tests Acetic acid-induced writhing was measured in Swiss mice or C57B1/6 mice (wild-type and FAAH-deficient), as described^40 with minor modifications. Briefly, the mice were acclimated to the experimental room for 2 h. Each animal was injected with acetic acid (150 μL, 0.6% in saline) and placed into a glass cylinder. Abdominal stretches (extension of body and hind limbs) were counted for 20 min, starting 5 min after acetic acid injection. […] Behavior was scored by an observer blinded to the treatment conditions. Formalin-induced nociception was assessed in Sprague-Dawley rats, as described^41. […] Immediately after formalin injection, the rats were returned to the observation container and nocifensive behavior was recorded for 60 min with a video camera. Recordings were analyzed by observers blinded to treatment conditions. Nocifensive behavior was measured continuously for 60 min^41. […] Each 5-min bin was analyzed for time spent (1) lifting and (2) licking or biting the injected paw. […]"}}, "note": "Where two headings read alike, the source gives them in different places."}
{"smiles": "NC(=O)c1cccc(-c2cc(OC(=O)NC3CCCCC3)ccc2O)c1", "note": "[Compound 1b, cyclohexylcarbamic acid 3′-carbamoyl-6-hydroxybiphenyl-3-yl ester]", "values": [{"measurement": "inhibition at 1 mg/kg", "setting": "FAAH [1]; Mice, 1 mg/Kg i.p., Colon, read-out: % of FAAH inhibition, Colon", "result": "84.7 ± 0.3", "unit": "%"}, {"measurement": "inhibition at 1 mg/kg", "setting": "FAAH [1]; Mice, 1 mg/Kg i.p., Duodenum, read-out: % of FAAH inhibition, Duodenum", "result": "84.3 ± 1.4", "unit": "%"}, {"measurement": "inhibition at 1 mg/kg", "setting": "FAAH [1]; Mice, 1 mg/Kg i.p., Hypothalamus, read-out: % of FAAH inhibition, Hypothalamus", "result": "18.4 ± 13.8", "unit": "%"}, {"measurement": "inhibition at 1 mg/kg", "setting": "FAAH [1]; Mice, 1 mg/Kg i.p., Illeum, read-out: % of FAAH inhibition, Illeum", "result": "86.8 ± 2.4", "unit": "%"}, {"measurement": "inhibition at 1 mg/kg", "setting": "FAAH [1]; Mice, 1 mg/Kg i.p., Jejunum, read-out: % of FAAH inhibition, Jejunum", "result": "90 ± 1.4", "unit": "%"}, {"measurement": "inhibition at 1 mg/kg", "setting": "FAAH [1]; Mice, 1 mg/Kg i.p., Kidney, read-out: % of FAAH inhibition, Kidney", "result": "88.3 ± 1", "unit": "%"}, {"measurement": "inhibition at 1 mg/kg", "setting": "FAAH [1]; Mice, 1 mg/Kg i.p., Liver, read-out: % of FAAH inhibition, Liver", "result": "91.7 ± 0.7", "unit": "%"}, {"measurement": "inhibition at 1 mg/kg", "setting": "FAAH [1]; Mice, 1 mg/Kg i.p., Spinal cord, read-out: % of FAAH inhibition, Spinal cord", "result": "17.7 ± 10.6", "unit": "%"}, {"measurement": "inhibition at 1 mg/kg", "setting": "FAAH [1]; Mice, 1 mg/Kg i.p., Spleen, read-out: % of FAAH inhibition, Spleen", "result": "72.5 ± 0.7", "unit": "%"}, {"measurement": "inhibition at 1 mg/kg", "setting": "FAAH [1]; ex vivo 1 h after a single injection in mice (1 mg-kg^-1, i.p.), brain, read-out: FAAH Inhibition in brain (%)", "result": "-3 ± 8", "unit": "%"}, {"measurement": "recovery at 10 μM", "setting": "[2]; Caco-2, TC7 monolayers, 10 μM compound, read-out: % recovery A-B", "result": 83, "unit": "%"}, {"measurement": "recovery at 10 μM", "setting": "[2]; Caco-2, TC7 monolayers, 10 μM compound, read-out: % recovery B-A", "result": 95, "unit": "%"}, {"measurement": "recovery at 10 μM", "setting": "[2]; Caco-2, with verapamil 100 μM, TC7 monolayers, verapamil (100 μM), read-out: % recovery B-A with verapamil", "result": 94, "unit": "%"}, {"measurement": "Papp A→B at 10 μM", "setting": "[2]; Caco-2, TC7 monolayers, 10 μM compound, mean of 2 independent experiments, read-out: permeability A-B", "result": 3.8, "unit": "×10⁻⁶ cm/s"}, {"measurement": "Papp B→A at 10 μM", "setting": "[2]; Caco-2, TC7 monolayers, 10 μM compound, mean of 2 independent experiments, read-out: permeability B-A", "result": 37.1, "unit": "×10⁻⁶ cm/s"}, {"measurement": "Papp B→A at 10 μM", "setting": "Pgp", "result": 32.2, "unit": "×10⁻⁶ cm/s"}, {"measurement": "nocifensive behavior when administered alone", "setting": "[3]; mice, 1 mg-kg^-1, without acetic acid", "result": "no detectable nocifensive behavior"}, {"measurement": "acetic acid-induced writhing ED50", "setting": "[3]; mice, subcutaneous administration, 1 h before acetic acid", "result": 0.1, "unit": "mg/kg"}, {"measurement": "reduction of acetic acid-induced writhing in FAAH-deficient mice", "setting": "[3]; mutant FAAH-deficient mice, 1 mg-kg^-1", "result": "absent"}, {"measurement": "anandamide levels", "setting": "FAAH [4]", "result": "increased anandamide levels in the periphery, not in forebrain or hypothalamus"}, {"measurement": "tissue levels of 2-AG in vivo", "setting": "FAAH [4]", "result": "did not alter"}, {"measurement": "area under the curve of formalin-induced pain behavior", "setting": "[5]", "result": "decreased the area under the curve"}]}
